In patent US8242240B2, “Anti-inflammatory compounds and uses thereof” (Yale University, priority 2000, dated 2012):
Several values for one entry are separate records, joined by “and”; a condition that tells them apart may be missing. Equal entries are not always repeated. [ ]: non-standard residue; d: D form.

What was measured:
[1] = test system: mice (PMA-induced ear edema); assay: PMA-induced ear edema in mice; type: in vivo; conditions: topical 40 μg/ear, 30 min before and after PMA 5 μg/ear, 6 h
Experimental: The NBD peptide was tested for its ability to inhibit inflammatory responses in animals using two distinct models of acute inflammation. In the first model, ear edema was induced in mice using phorbol-12-myristate-13-acetate (PMA) and the effects of topical administration of the NBD peptides were measured. Ear edema using PMA was induced in replicate groups of age and sex matched mice as previously described (Chang et al., (1987) Eur. J. Pharmacol. 142, 197-205). Twenty μl of either NBD peptides (200 μg/ear), dexamethasone (40 μg/ear) or vehicle (DMSO:Ethanol; 25:75 v/v) was applied topically to the right ear of mice thirty minutes before and thirty minutes after the application of 20 μl of PMA (5 μg/ear) dissolved in ethanol. Ear swelling was measured six hours after PMA application using a microgauge and expressed as the mean difference in thickness between the treated (right) and untreated (left) ears. Statistical analysis of the data was performed using the students t-test. A value of p<0.05 was considered statistically significant.

[2] = test system: mice (zymosan-induced peritonitis); assay: Zymosan-induced peritonitis in mice; type: in vivo, mice (C57BL/6NCR); conditions: dexamethasone 100 mg/ml i.p. with zymosan
Experimental: In a second model, peritonitis was induced in mice by intraperitoneal (i.p.) injection of zymosan either alone or in combination with dexamethasone or the NBD peptides. For zymosan-induced peritonitis, measurement of peritoneal exudates and inflammatory cell collections from replicate groups of age and sex matched mice (C57BL/6NCR) were performed as previously described (Getting et al., (1998) Immunology 95, 625-630). Groups of animals were injected concomitantly with one ml zymosan (1 mg/ml) and either dexamethasone (100 mg/ml) or the NBD peptides (200 mg/ml). The concentration of NOX (nitrate plus nitrite) present in the inflammatory exudates was measured using a colorimetric assay kit (Alexis Corporation) according to the manufacturers protocol.

[3] = target: T1, NEMO (Homo sapiens, UniProt Q9Y6K9); assay: GST pull-down of IKKβ NBD mutants by GST-NEMO; type: binding; conditions: GST pulldown assay; NBD mutations in IKKβ
T1 construct: bacterially expressed version of full length NEMO fused at its NH2-terminus to glutathione S-transferase; made in house; host or cells: bacteria (pGEX-4T1)
From the text: To identify the NEMO-interacting domain of IKKβ we performed in vitro pull down assays (Zhong et al., (1997) Cell 89, 413-424) using a bacterially expressed version of full length NEMO fused at its NH2-terminus to glutathione S-transferase (GST-NEMO; FIG. 1A). Various truncation mutants lacking different functional domains of IKKβ (catalytic domain, leucine zipper and helix-loop-helix; FIG. 1A) were constructed.
These mutants were labeled by in vitro translation with [^35S]-methionine (input; FIG. 1B), mixed with either GST alone or GST-NEMO, and precipitated using glutathione-agarose. […]
Further mutations in the NBD were analyzed (see Table 1) for their ability to affect NEMO binding to IKKβ using the GST pulldown assay explained in Example 3.

[4] = test system: mice (lethal Salmonella typhimurium LPS challenge); assay: Lethal lipopolysaccharide mouse model; type: in vivo, male C57BL/6 mice
Experimental: In this experiment, the ability of anti-inflammatory compounds of the invention to rescue mice challenged with a lethal amount of lipopolysaccharide (LPS) was assessed. LPS is a bacterial product that induces many of the responses that are seen in septic patients, including death. In this model, Salmonella typhimurium LPS in phosphate-buffered […] (PBS) was administered to male C57BL/6 mice by intravenous injection at a dose of 30 mg/kg (600 μg/20 g mouse). This dose was established in control experiments to be lethal in 100% of the mice that received it. Mice were treated with the test peptide by intravenous injection (in 1% dimethyl sulfoxide in PBS) immediately prior to the LPS injection and 24 hours after the LPS injection. Mice were monitored twice daily for up to 8 days after receiving LPS and the duration of survival and the number of surviving mice were recorded.

[5] = test system: mice (Concanavalin A-induced hepatitis); assay: Concanavalin A-induced hepatitis in mice; type: in vivo, male C57BL/6 mice; conditions: for ALT / AST: serum 18-24 h, mean±SEM
Experimental: Forty male C57BL/6 mice weighing between 18 g and 22 g were divided into five treatment groups of eight mice each as shown below.
The mice were placed in a restrainer and injected intravenously (i.v.) in the tail with a test peptide or vehicle in 1% DMSO in PBS. The mice were then immediately injected i.v. with 15 mg/kg of concanavalin A dissolved in sterile PBS. The injection volume was 5 ml/kg (100 μI/20 g mouse) with a concanavalin A concentration of 3.0 mg/ml. The next morning (18-24 hours later), these mice were euthanized by CO2 inhalation and blood was collected by cardiac puncture. The serum was then separated and analyzed for AST and ALT.
ALT and AST values are given as Sigma-Frankel units/ml, mean±SEM.

[6] = dose 1 mg/kg i.v., number dosed 8, LPS 30 mg/kg i.v.
[7] = dose 5 mg/kg i.v., number dosed 8, LPS 30 mg/kg i.v.
[8] = dose 5 mg/kg i.v., number dosed 7, LPS 30 mg/kg i.v.
[9] = concanavalin A 15 mg/kg i.v. + 0.5 mg/kg i.v.
[10] = concanavalin A 15 mg/kg i.v. + 1 mg/kg i.v.
[11] = concanavalin A 15 mg/kg i.v. + 5 mg/kg i.v.

T1 sequence (Q9Y6K9 whole entry, the tested form may be a part): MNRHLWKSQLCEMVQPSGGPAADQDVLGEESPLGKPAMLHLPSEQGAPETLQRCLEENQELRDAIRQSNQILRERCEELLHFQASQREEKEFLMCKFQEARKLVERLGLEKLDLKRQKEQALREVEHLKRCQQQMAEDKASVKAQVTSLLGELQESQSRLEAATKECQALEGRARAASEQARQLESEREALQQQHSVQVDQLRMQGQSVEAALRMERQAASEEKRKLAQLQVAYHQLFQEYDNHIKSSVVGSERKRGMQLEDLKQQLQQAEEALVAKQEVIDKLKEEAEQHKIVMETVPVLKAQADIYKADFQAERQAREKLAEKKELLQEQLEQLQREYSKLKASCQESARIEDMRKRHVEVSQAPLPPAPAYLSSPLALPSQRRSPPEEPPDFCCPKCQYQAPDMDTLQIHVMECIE

Compound | Binds to NEMO [3] | survival (day five), number of mice surviving [4, 7] | further results
C[C@@H]1C[C@H]2[C@@H]3CCC4=CC(=O)C=C[C@]4(C)[C@@]3(F)[C@@H](O)C[C@]2(C)[C@@]1(O)C(=O)CO [dexamethasone] | – | – | inhibition of PMA-induced ear thickening [1]: 82%; reduction of NOX in peritoneal exudates [2]: 86±7%
H-RRMKWKKLDWSWL-NH2 [compound 6] | – | 7 and 5 and 4 and 8 | survival (day five), number of mice surviving [4, 6]: 0
H-RRMKWKKTALDWSWLQTE-NH2 [compound 1] | – | – | survival (day five), number of mice surviving [4, 8]: 1
H-YARAARRAARRLDWSWL-NH2 [compound 9] | – | 6 and 8 | survival (day five), number of mice surviving [4, 6]: 0
H-YARAARRAARRTALDWSWLQTE-NH2 [compound 5] | – | – | survival (day five), number of mice surviving [4, 6]: 4
H-YARKARRQARRTALDWSWLQTE-NH2 [compound 4] | – | 0 | –
H-YGRKKRRQRRRLDWSWL-NH2 [compound 11] | – | 6 | –
H-YGRKKRRQRRRTALDWSWLQTE-NH2 [compound 2] | – | 4 | survival (day five), number of mice surviving [4, 8]: 7
H-rrmkwkkLDWSWL-NH2 (H-[dR][dR][dM][dK][dW][dK][dK]LDWSWL-NH2; SMILES CSCC[C@@H](NC(=O)[C@@H](CCCNC(=N)N)NC(=O)[C@H](N)CCCNC(=N)N)C(=O)N[C@H](CCCCN)C(=O)N[C@H](Cc1c[nH]c2ccccc12)C(=O)N[C@H](CCCCN)C(=O)N[C@H](CCCCN)C(=O)N[C@@H](CC(C)C)C(=O)N[C@@H](CC(=O)O)C(=O)N[C@@H](Cc1c[nH]c2ccccc12)C(=O)N[C@@H](CO)C(=O)N[C@@H](Cc1c[nH]c2ccccc12)C(=O)N[C@@H](CC(C)C)C(N)=O) [compound 7] | – | 8 | –
H-rrrrrrrLDWSWL-NH2 (H-[dR][dR][dR][dR][dR][dR][dR]LDWSWL-NH2; SMILES CC(C)C[C@H](NC(=O)[C@H](Cc1c[nH]c2ccccc12)NC(=O)[C@H](CO)NC(=O)[C@H](Cc1c[nH]c2ccccc12)NC(=O)[C@H](CC(=O)O)NC(=O)[C@H](CC(C)C)NC(=O)[C@@H](CCCNC(=N)N)NC(=O)[C@@H](CCCNC(=N)N)NC(=O)[C@@H](CCCNC(=N)N)NC(=O)[C@@H](CCCNC(=N)N)NC(=O)[C@@H](CCCNC(=N)N)NC(=O)[C@@H](CCCNC(=N)N)NC(=O)[C@H](N)CCCNC(=N)N)C(N)=O) [compound 8] | – | 7 and 8 | survival (day five), number of mice surviving [4, 6]: 0
H-rrrrrrrTALDWSWLQTE-NH2 (H-[dR][dR][dR][dR][dR][dR][dR]TALDWSWLQTE-NH2; SMILES CC(C)C[C@H](NC(=O)[C@H](C)NC(=O)[C@@H](NC(=O)[C@@H](CCCNC(=N)N)NC(=O)[C@@H](CCCNC(=N)N)NC(=O)[C@@H](CCCNC(=N)N)NC(=O)[C@@H](CCCNC(=N)N)NC(=O)[C@@H](CCCNC(=N)N)NC(=O)[C@@H](CCCNC(=N)N)NC(=O)[C@H](N)CCCNC(=N)N)[C@@H](C)O)C(=O)N[C@@H](CC(=O)O)C(=O)N[C@@H](Cc1c[nH]c2ccccc12)C(=O)N[C@@H](CO)C(=O)N[C@@H](Cc1c[nH]c2ccccc12)C(=O)N[C@@H](CC(C)C)C(=O)N[C@@H](CCC(N)=O)C(=O)N[C@H](C(=O)N[C@@H](CCC(=O)O)C(N)=O)[C@@H](C)O) [compound 3] | – | 5 and 8 | survival (day five), number of mice surviving [4, 8]: 7
H-yaraarraarrLDWSWL-NH2 (H-[dY][dA][dR][dA][dA][dR][dR][dA][dA][dR][dR]LDWSWL-NH2; SMILES CC(C)C[C@H](NC(=O)[C@H](Cc1c[nH]c2ccccc12)NC(=O)[C@H](CO)NC(=O)[C@H](Cc1c[nH]c2ccccc12)NC(=O)[C@H](CC(=O)O)NC(=O)[C@H](CC(C)C)NC(=O)[C@@H](CCCNC(=N)N)NC(=O)[C@@H](CCCNC(=N)N)NC(=O)[C@@H](C)NC(=O)[C@@H](C)NC(=O)[C@@H](CCCNC(=N)N)NC(=O)[C@@H](CCCNC(=N)N)NC(=O)[C@@H](C)NC(=O)[C@@H](C)NC(=O)[C@@H](CCCNC(=N)N)NC(=O)[C@@H](C)NC(=O)[C@H](N)Cc1ccc(O)cc1)C(N)=O) [compound 10] | – | 8 and 6 | survival (day five), number of mice surviving [4, 6]: 5; liver injury by concanavalin A, gross pathology ([5]; 5 mg/kg): prevented; protection against concanavalin A-induced liver damage ([5]; 5 mg/kg): able to protect; ALT [5, 9]: 1919 ± 234 Sigma-Frankel units/ml; AST [5, 9]: 1217 ± 192 Sigma-Frankel units/ml; ALT [5, 10]: 1910 ± 281 Sigma-Frankel units/ml; AST [5, 10]: 1264 ± 270 Sigma-Frankel units/ml; ALT [5, 11]: 72 ± 19 Sigma-Frankel units/ml; AST [5, 11]: 99 ± 14 Sigma-Frankel units/ml
LAWSWL (Description of Artificial Sequence: Synthetic NBD peptide) | no | – | –
LDASAL (Description of Artificial Sequence: Synthetic NBD peptide) | no | – | –
LDWSAL (Description of Artificial Sequence: Synthetic NBD peptide) | no | – | –
LDWSWA (Description of Artificial Sequence: Synthetic NBD peptide) | yes | – | –
LDYSWL (Description of Artificial Sequence: Synthetic NBD peptide) | yes | – | –
LEWSWL (Description of Artificial Sequence: Synthetic NBD peptide) | yes | – | –

Second part, led by results:

Binds to NEMO [3] | Compound | survival (day five), number of mice surviving [4, 7] | further results
yes | ADWSWL | – | –
no | LDASWL (Description of Artificial Sequence: Synthetic NBD peptide) | – | –
yes | LDFSWL | – | –
yes | LDWAWL | – | –
yes | LDWEWL (Description of Artificial Sequence: Synthetic NBD peptide) | – | –
yes | LDWSFL (Description of Artificial Sequence: Synthetic NBD peptide) | – | –
yes | LDWSWL (Description of Artificial Sequence: Synthetic NBD peptide) | – | –
no | LDWSYL (Description of Artificial Sequence: Synthetic NBD peptide) | – | –
yes | LNWSWL (Description of Artificial Sequence: Synthetic NBD peptide) | – | –
